In publication PMC12214536 (Nature Communications, 2025):
Where two headings read alike, the source gives them in different places.

Columns and labels:
[1] = tested on: CrzA:GFP; assay type: cell-based, Aspergillus fumigatus; details: 15 min
[2] = tested on: ΔsltA CrzA:GFP; assay type: cell-based, Aspergillus fumigatus; details: 15 min
[3] = tested on: A. fumigatus ΔsltA ΔcrzA; assay type: cell-based, Aspergillus fumigatus
[4] = tested on: A. fumigatus (Af293) infection; assay type: in vivo, Caenorhabditis elegans
[5] = tested on: A. fumigatus wild-type (p)agsA::mluc; assay type: cell-based, Aspergillus fumigatus; details: CAS 0.05 and 0.125 µg/mL; COL 50 and 80 µM; or combination; 16 h at 35 °C
[6] = tested on: SltA; assay type: cell-based, Aspergillus fumigatus
[7] = tested on: A. fumigatus conidia in A549 cells; assay: A549 human lung epithelial cells killing assay; assay type: cell-based, Aspergillus fumigatus
[8] = tested on: A. fumigatus ΔsltA; assay type: cell-based, Aspergillus fumigatus
[9] = tested on: A. fumigatus conidia; assay: Fungicidal activity: CFU on drug-free MM after 48 h with compound + CAS; assay type: cell-based, Aspergillus fumigatus; details: 0.2 μg/mL CAS, then CFU on compound-free medium, n = 3
[10] = tested on: A. fumigatus wild-type mycelia; assay type: cell-based, Aspergillus fumigatus; details: n = 9
[11] = tested on: A. fumigatus h2A::mRFP strain; assay: h2A::mRFP fluorescence, apoptosis-like cell death marker; assay type: cell-based, Aspergillus fumigatus; details: H2O2 10 mM, COL 10 or 20 μM, CAS 0.03 or 0.2 μg/mL, or CAS with COL; 1 h
[12] = tested on: A. fumigatus mito::GFP germlings; assay type: cell-based, Aspergillus fumigatus
[13] = tested on: HepG2 liver cells; assay: HepG2 cytotoxicity, Alamar blue; assay type: cell-based, human; details: COL 0, 20 and 40 µM + CAS 50 μg/mL; topotecan positive control; 48 h; n = 6
[14] = tested on: A. fumigatus; assay type: cell-based, Aspergillus fumigatus; details: 58 PKI at 20 µM alone or with COL 2.5 µM; 48 h, 37 °C
[15] = tested on: A. fumigatus ΔcalA; assay type: cell-based, Aspergillus fumigatus
[16] = tested on: A. fumigatus ΔcrzA; assay type: cell-based, Aspergillus fumigatus

Compound: [Ca+2].[Cl-].[Cl-] [CaCl2]
- increase of CrzA:GFP translocation to the nucleus [1]: about 4 fold
- increase of CrzA:GFP localization to the nucleus [2]: about 4 fold

Compound: colistin
- sensitivity of ΔsltA ΔcrzA compared with ΔsltA [3]: as sensitive to COL and COL with CAS as ΔsltA alone
- increase of CrzA:GFP translocation to the nucleus [1]: about 4 fold
- survival of infected animals over 3 days ([4]; in vivo): no impact on C. elegans survival
- luminescence readings compared with no compound controls [5]: about 2 fold
- increased expression of SltA compared to non-exposure [6]: about 4 fold
- A. fumigatus conidial killing, COL alone vs combination ([7]; COL 80 µM vs COL 80 µM + CAS 50 µg/mL): same level of conidial killing than the combination of COL 80 µM + CAS 50 µg/mL
- effect of Ca2+ addition on ΔsltA growth in the presence of COL [8]: rescue ΔsltA growth
- growth of ΔsltA compared with the wild-type strain [8]: significantly more sensitive to COL
- lowest concentration with 100% fungicidal effect combined with CAS [9]: 10 µM
- reduction of total ATP compared with the control [10]: about 25%
- mRFP fluorescence of h2A::mRFP germlings [11]: no differences in mRFP fluorescence
- germlings with mitochondrial fragmentation [12]: 20%

Compound: CC[C@@]1(O)C(=O)OCc2c1cc1n(c2=O)Cc2cc3c(CN(C)C)c(O)ccc3nc2-1 [topotecan]
- toxicity to HepG2 cells (cell viability, Alamar blue) [13]: very high toxicity

Compound: Cn1cc(C2=C(c3cn(C4CCN(Cc5ccccn5)CC4)c4ccccc34)C(=O)NC2=O)c2ccccc21 [enzaustarin, enzastaurin]
- potentiation of COL activity (metabolic activity) [14]: potentiated COL activity

Compound: caspofungin
- growth of ΔcalA compared to wild-type [15]: significantly better growth
- survival of infected animals over 3 days ([4]; 25 °C): significantly improved survival
- growth of ΔsltA compared with the wild-type strain [8]: comparable growth with the wild-type
- reduction of total ATP compared with the control [10]: about 25%
- mRFP fluorescence of h2A::mRFP germlings [11]: no differences in mRFP fluorescence
- growth of ΔcrzA compared to wild-type [16]: significantly better growth
- germlings with mitochondrial fragmentation [12]: 35%

Compound: COC(=O)C1=C(C)NC(C)=C(C(=O)OC(C)(C)CN(C)CCC(c2ccccc2)c2ccccc2)C1c1cccc([N+](=O)[O-])c1 (centres unmarked) [LER, lercanidipine]
- lowest concentration with 100% fungicidal effect combined with CAS [9]: 3.95 µg/mL

Compound: OO [H2O2]
- mRFP fluorescence of h2A::mRFP germlings [11]: complete loss of red fluorescence

Compound: C[C@@H](c1ncncc1F)[C@](O)(Cn1cncn1)c1ccc(F)cc1F [VOR, voriconazole]
- A. fumigatus conidial killing ([7]; VOR 0.5 μg/mL, COL 20 and 40 μM, CAS 50 μg/mL, or COL + CAS, MOI 1:10, 24 h, n = 6): 85%
